Assay results taken from US10322125B2, “TGF-beta enhancing compositions for cartilage repair and methods related thereto” (EMORY UNIVERSITY, priority 2013, dated 2019).

System: 3TP-Lux luciferase reporter (TGF-β-responsive region of the PAI-1 gene) in C2C12 cells
Experiment: C2C12 cell-based Dual-Luciferase reporter screening assay for TGF-β activity (3TP-Lux)
Set-up: species or system mouse
Conditions: FIG. 6
Description: The C2C12 cells, a mouse myoblast cell line, were obtained from the American Type Culture Collection (ATCC, Manassas, 8 VA). Cells were grown in Dulbecco's modified Eagle medium (DMEM, Gibco Life Technologies, Rockville, Md.) with 10% non heat inactivated fetal bovine serum (Atlanta Biologicals, Norcross, Ga.). The C2C12 cells at passages 4 to 7 were subcultured in T-75 cm2 flasks at 37° C. in a humidified atmosphere containing 5% CO2. When the flasks reached 80% confluence, the cells were trypsinized and seeded in triplicate at 50,000 cells/well in a 12-well plate for the Dual-Luciferase reporter assay.
The C2C12 cells were seeded at a 50,000 cell/well in 12-well plates on day 1. […]
For each well, a total of 1 μg DNA was used for the cotransfection and concentration of pGL4.74 Renilla luciferase vector was 1/15 of 3TP-Lux reporter plasmid. […] On day 5, the luciferase activity was measured using the luciferase assay kit (Promega, Madison, Wis.) according to the manufacturer's instructions on a luminescence reader (VictorTMX Light, PerkinElmer Life and Analytical Sciences, Waltham, Mass.). […]

Question: Which “reporter response at higher TGF-β doses” value (doses ranging from 10 ng/ml to 100 ng/ml of TGF-β, compared with 5 ng/ml dose, DMSO instead of compounds) does the source give for “TGF-β: Transforming growth factor beta, a secreted protein; cells were treated with TGF-β1 in the reporter assay” here?
Answer: did not increase reporter response beyond 5 ng/ml dose

Question: What about the “TGF-β dose at which maximum reporter response was reached” value (luciferase reporter assay, DMSO solvent instead of compounds) of the same substance?
Answer: 5 ng/mL
